For one data set, the target named is Ephrin type-A receptor 7 (Mus musculus, UniProt Q61772). In words: Displacement of biotinylated ephrin-A1-Fc from mouse EphA7 Fc preincubated for 1 hr followed by ephrin-A1-FC addition and measured after 4 hrs by ELISA.
In the next data set the test system is HUVEC. In words: Cytotoxicity against HUVEC cells after 2 to 16 hrs by LDH assay. The class given is cell-based. The conditions noted are these: human, time 2-16 hrs.

The results in this text go back to ChEMBL document CHEMBL4680187, “Optimization of EphA2 antagonists based on a lithocholic acid core led to the identification of UniPR505, a new 3α-carbamoyloxy derivative with antiangiogenetic properties” (Eur J Med Chem, 2020).

Chain of Ephrin type-A receptor 7 (Q61772 whole entry): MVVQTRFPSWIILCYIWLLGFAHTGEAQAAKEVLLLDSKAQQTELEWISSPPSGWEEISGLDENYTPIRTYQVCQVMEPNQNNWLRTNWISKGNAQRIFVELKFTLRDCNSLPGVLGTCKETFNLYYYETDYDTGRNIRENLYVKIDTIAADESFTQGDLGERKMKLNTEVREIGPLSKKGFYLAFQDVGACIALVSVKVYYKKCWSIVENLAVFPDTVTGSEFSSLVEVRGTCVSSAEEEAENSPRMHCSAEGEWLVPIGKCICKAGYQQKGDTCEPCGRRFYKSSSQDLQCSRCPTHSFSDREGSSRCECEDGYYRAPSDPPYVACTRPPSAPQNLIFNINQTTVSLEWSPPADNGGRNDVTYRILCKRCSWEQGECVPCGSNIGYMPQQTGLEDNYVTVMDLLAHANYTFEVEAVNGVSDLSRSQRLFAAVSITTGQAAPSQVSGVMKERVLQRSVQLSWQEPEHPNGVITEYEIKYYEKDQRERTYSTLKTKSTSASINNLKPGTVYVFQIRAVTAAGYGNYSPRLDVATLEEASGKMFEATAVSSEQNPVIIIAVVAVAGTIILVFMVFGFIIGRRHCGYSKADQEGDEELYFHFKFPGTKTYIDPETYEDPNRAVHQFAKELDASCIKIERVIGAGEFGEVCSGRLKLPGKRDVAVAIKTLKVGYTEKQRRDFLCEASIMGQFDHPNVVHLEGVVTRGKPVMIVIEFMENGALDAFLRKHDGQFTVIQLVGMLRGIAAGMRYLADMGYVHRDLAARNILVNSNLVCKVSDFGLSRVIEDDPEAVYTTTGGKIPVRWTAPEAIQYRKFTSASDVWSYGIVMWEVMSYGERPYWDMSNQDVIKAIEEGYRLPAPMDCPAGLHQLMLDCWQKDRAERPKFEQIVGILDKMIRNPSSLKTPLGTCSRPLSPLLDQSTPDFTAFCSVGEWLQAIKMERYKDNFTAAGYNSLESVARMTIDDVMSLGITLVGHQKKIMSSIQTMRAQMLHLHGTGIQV

As to `CCNC(=O)O[C@@H]1CC[C@@]2(C)[C@H](CC[C@@H]3[C@@H]2CC[C@]2(C)[C@@H]([C@H](C)CCC(=O)N[C@H](CC(=O)O)Cc4c[nH]c5ccccc45)CC[C@@H]32)C1`, the IC50 (usually the concentration that gives 50% inhibition) on Ephrin type-A receptor 7 was greater than 30 µM. Besides, the Activity entry with HUVEC is given as “Non-Toxic”.
